Laboratory results taken from US5736380A, “Maltose-trehalose converting enzyme, and preparation and uses thereof” (Kabushiki Kaisha Hayashibara Seibutsu Kagaku Kenkyujo, priority 1993, dated 1998).

Experiments:
[1] = molecular target: enzyme from Pseudomonas putida H262 (Pseudomonas putida, UniProt Q88FN0); experiment: Action on saccharides (TLC), 35° C.; format: biochemical
Description: A variety of saccharides were tested for determining whether they could be used as a substrate for the present enzyme.
(§1) The solutions were respectively mixed with 2 units/g substrate, d.s.b., of a maltose-trehalose converting enzyme obtained by the method in Experiment 2, adjusted their substrate concentrations to 5 w/v %, and subjected to enzymatic reaction at 20° C. and pH 7.0 for 24 hours. The solutions before and after their enzymatic reactions were subjected to thin layer chromatography (TLC) using "[…] 60 (20×20 cm)", an aluminum plate for TLC commercialized by Merck & Co., Inc., Rahway, USA, for determining whether the present enzyme acts on the saccharides. The resultant products were developed once on the plates by using a developing solvent system of 1-butanol, pyridine and water (=6:4:1 by volume). The products on the plates were colored by spraying thereto a 20 v/v % sulfuric acid in methanol, and heating the plates at 110° C. for 10 min.
A variety of saccharides were tested for determining whether they could be used as a substrate for the present enzyme from Pseudomonas putida H262 obtained in Experiment 10 in accordance with the method in Experiment 4 except for setting the reaction temperature to 35° C. Similarly as the enzyme from Pseudomonas putida H262, the enzyme from Pimelobacter sp.

[2] = tested on: Partially purified enzymes derived from known microorganisms of the genus Thermus; experiment: Action on saccharides, partially purified enzymes; format: biochemical; details: method of Experiment 18
Description: A variety of saccharides were tested for determining whether they could be used as a substrate for the present enzyme from Thermus aquaticus (ATCC 33923), obtained in accordance with the method in Experiment 4 except for setting the reaction temperature to 50° C. Similarly as the enzymes from Pimelobacter sp.
Among conventional microorganisms, a microorganism which had been confirmed its ability to form the present maltose-trehalose converting enzyme was incubated in an Erlenmeyer flask for 48 hours in accordance with Experiment 15. After analyzed the enzyme activity, the resultant culture was subjected to a cell disrupting apparatus in accordance with Experiment 16. From the resultant mixture a supernatant was prepared and dialyzed to obtain a partially purified enzyme, followed by analyzing the property in accordance with Experiment 17.
Partially purified enzymes derived from known microorganisms of the genus Thermus as shown in Table 12 were studied on their action on a variety of saccharides in accordance with the method in Experiment 18.

[3] = molecular target: T1, maltose-trehalose converting enzyme derived from Pimelobacter sp. R48 (Pimelobacter sp., UniProt P72235); experiment: Action on saccharides (TLC before and after enzymatic reaction); format: biochemical; details: 20° C., pH 7.0, 24 hours
T1 construct: The culture obtained in Experiment 1 was centrifuged to obtain an about 0.5 kg wet cells; endogenous in cells; host or cells: Pimelobacter sp; R48 (FERM BP-4315), enzyme purified from the disrupted wild-type cells
T1 sequence (P72235 1-573): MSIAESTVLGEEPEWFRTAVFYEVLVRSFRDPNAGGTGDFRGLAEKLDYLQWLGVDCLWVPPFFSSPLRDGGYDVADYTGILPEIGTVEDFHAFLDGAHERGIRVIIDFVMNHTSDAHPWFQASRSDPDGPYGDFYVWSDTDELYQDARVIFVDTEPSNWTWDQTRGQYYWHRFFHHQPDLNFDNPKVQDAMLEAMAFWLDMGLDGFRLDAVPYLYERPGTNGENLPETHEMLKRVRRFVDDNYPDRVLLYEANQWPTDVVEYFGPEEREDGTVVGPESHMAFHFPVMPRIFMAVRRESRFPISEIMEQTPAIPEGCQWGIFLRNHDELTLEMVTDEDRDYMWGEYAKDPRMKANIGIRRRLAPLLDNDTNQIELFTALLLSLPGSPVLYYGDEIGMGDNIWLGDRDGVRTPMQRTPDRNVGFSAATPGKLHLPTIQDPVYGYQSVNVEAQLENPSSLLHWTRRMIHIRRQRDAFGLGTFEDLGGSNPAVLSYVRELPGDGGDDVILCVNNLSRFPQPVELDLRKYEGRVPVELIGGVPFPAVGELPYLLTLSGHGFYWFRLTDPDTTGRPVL
Description: A variety of saccharides were tested for determining whether they could be used as a substrate for the present enzyme. Glucose, maltose, maltotriose,maltotetraose, maltopentaose, maltohexaose, maltoheptaose, soluble starch, amylose having an average polymerization degree of 18, trehalose, neotrehalose, gentiobiose, kojibiose, isomaltose, cellobiose, maltitol, sucrose, maltulose, turanose, paratinose, trehalulose or lactose was prepared into a solution. A solution containing glucose and the equal amount of α-glucose 1-phosphate or β-glucose 1-phosphate was prepared.
as §1

[4] = Physicochemical property of trehalose: solubility in water; details: at 25° C., for anhydrous trehalose
Description: A high-purity trehalose specimen prepared by the method in Experiment 8 was studied on its physicochemical property. As a result, the melting point was determined as 97.0° C., the specific rotation was [α]D^20 +199° […].

[5] = Acute toxicity test, oral; format: in vivo; details: mouse, in vivo, mice, not so accurate
Description: (§2) By using mice, the high-purity trehalose specimen with a purity of 99.8%, d.s.b., prepared in Experiment 8 was orally administered to the mice for its acute toxicity test. […] Though it is not so accurate, the LD50 was determined to be 50 g/kg or higher.

mice = experiment: Acute toxicity test, oral; format: in vivo; details: highest level of dose administrable
Description: as §2

[6] = Utilization test in vivo (blood sugar- and insulin-levels after oral administration); details: 30 g as 20 w/v % aqueous solution, orally, healthy male volunteers
Description: In accordance with the method as reported by H. Atsuji et al. in Journal of Clinical Nutrition, Vol.41, No.2, pp.200-208 (1972), 30 g of the high-purity trehalose specimen with a purity of 99.8%, d.s.b., in Experiment 8 was prepared into a 20 w/v % aqueous solution which was then orally administered to 3 healthy male volunteers, and their bloods were sampled at prescribed time intervals, followed by the measurements of the blood sugar- and insulin-levels. As a control glucose was used. […] Thus, the present trehalose and saccharide composition containing the same are suitably used as an energy-supplementing saccharide.

Sequence of enzyme from Pseudomonas putida H262 (Q88FN0 entry or part of it): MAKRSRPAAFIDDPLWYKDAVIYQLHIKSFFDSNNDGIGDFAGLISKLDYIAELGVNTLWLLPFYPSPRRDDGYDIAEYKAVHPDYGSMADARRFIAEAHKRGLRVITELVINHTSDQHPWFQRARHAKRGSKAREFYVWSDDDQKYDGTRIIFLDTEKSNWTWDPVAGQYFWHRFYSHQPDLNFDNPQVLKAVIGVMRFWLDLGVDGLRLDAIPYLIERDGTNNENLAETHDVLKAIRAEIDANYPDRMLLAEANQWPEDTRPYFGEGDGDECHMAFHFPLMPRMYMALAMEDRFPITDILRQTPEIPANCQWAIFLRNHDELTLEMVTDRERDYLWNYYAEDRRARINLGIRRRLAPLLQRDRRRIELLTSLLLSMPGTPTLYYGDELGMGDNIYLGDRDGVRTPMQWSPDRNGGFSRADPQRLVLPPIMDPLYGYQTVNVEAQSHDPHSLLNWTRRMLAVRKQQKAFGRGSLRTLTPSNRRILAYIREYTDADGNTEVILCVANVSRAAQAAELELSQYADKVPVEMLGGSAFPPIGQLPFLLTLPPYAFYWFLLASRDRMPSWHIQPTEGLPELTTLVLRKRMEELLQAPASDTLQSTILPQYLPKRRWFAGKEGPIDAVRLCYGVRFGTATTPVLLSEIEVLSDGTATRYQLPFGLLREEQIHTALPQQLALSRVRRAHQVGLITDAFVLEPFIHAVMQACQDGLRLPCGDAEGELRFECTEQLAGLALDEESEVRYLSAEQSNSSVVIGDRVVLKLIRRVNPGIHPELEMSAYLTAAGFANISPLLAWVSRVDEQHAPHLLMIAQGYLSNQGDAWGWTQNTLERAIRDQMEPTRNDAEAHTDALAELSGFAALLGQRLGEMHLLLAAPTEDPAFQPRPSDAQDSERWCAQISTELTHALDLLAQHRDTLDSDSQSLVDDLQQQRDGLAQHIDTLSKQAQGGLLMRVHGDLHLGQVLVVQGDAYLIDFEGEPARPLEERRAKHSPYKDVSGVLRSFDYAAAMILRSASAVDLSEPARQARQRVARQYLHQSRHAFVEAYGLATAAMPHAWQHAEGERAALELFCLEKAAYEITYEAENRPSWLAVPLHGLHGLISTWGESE

| SMILES | action of enzyme on saccharide [1] | action of enzyme on saccharide [2] | Action of enzyme ([3]; 2 units/g substrate, substrate 5 w/v %) | action of enzyme on saccharide [3] | solubility in water [4] | LD50 [5] | mortality (mice) | blood sugar- and insulin-levels compared with glucose control [6] | time of the maximum of blood sugar-level after the administration [6] | time of the maximum of insulin-level after the administration [6] |
| --- | --- | --- | --- | --- | --- | --- | --- | --- | --- | --- |
| OC[C@H]1O[C@H](O[C@H]2[C@H](O)[C@@H](O)[C@H](O)O[C@@H]2CO)[C@H](O)[C@@H](O)[C@@H]1O [Maltose] | specifically acted on | specifically acted on | + + | only acts on |  |  |  |  |  |  |
| OC[C@H]1O[C@H](O[C@H]2O[C@H](CO)[C@@H](O)[C@H](O)[C@H]2O)[C@H](O)[C@@H](O)[C@@H]1O [high-purity trehalose specimen, trehalose] |  |  |  |  | 77.0 g | ≥ 50000 mg/kg | no mouse died | behaved similarly as glucose | 0.5 to 1 h | 0.5 to 1 h |
| OC[C@H]1O[C@H](O[C@H]2O[C@H](CO)[C@@H](O)[C@H](O)[C@H]2O)[C@H](O)[C@@H](O)[C@@H]1O [Trehalose] | specifically acted on | specifically acted on |  | only acts on |  |  |  |  |  |  |
